Test results reported in the supplement of paper PMC4862054.

Experiments:
Conditions in all cases: incubation time: 72 h
BT-549 [1] = experiment: normalised viability (% of control), CellTiter-Blue; higher = more viable cells (about 100 = DMSO control)
Procedure, shortened: (§1)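 Each value is normalised viability at a single listed concentration of the series. Breast cancer cell lines in 384-well plates were incubated 72 h with compound and read by CellTiter-Blue fluorescence at 560/590 nm, with vehicle set to 100 and a positive kill control to 0 on every plate.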

CAL-120 [2] = experiment: as above
Procedure, shortened: as §1

CAL-148 [3] = experiment: as above
Procedure, shortened: as §1

CAL-51 [4] = experiment: as above
Procedure, shortened: as §1

CAL-85-1 [5] = experiment: as above
Procedure, shortened: as §1

DU-4475 [6] = experiment: as above
Procedure, shortened: as §1

HCC1143 [7] = experiment: as above
Procedure, shortened: as §1

HCC1599 [8] = experiment: as above
Procedure, shortened: as §1

HCC1937 [9] = experiment: as above
Procedure, shortened: as §1

BT-474 = experiment: drug sensitivity score (DSS), CellTiter-Glo (DSS (AUC-based score)); higher = stronger drug effect (viability inhibition or cytotoxicity); extreme values may be limits of the assay
Procedure, shortened: (§2)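 In 384-well plates, compound was laid out at 5 concentrations in 10-fold steps over a 10,000-fold range specific to each compound, and breast cancer cell lines were seeded on top in 20 µl suspension for a 72 h incubation. CellTox Green fluorescence and then CellTiter-Glo luminescence were read, and each plate was normalised to 0.1 % DMSO and a positive kill control. The drug sensitivity score was calculated from the area under the fitted dose-response curve.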

BT-549 [10] = experiment: as above
Procedure, shortened: as §2

CAL-120 [11] = experiment: as above
Procedure, shortened: as §2

CAL-148 [12] = experiment: as above
Procedure, shortened: as §2

CAL-51 [13] = experiment: as above
Procedure, shortened: as §2

CAL-85-1 [14] = experiment: as above
Procedure, shortened: as §2

DU-4475 [15] = experiment: as above
Procedure, shortened: as §2

HCC1143 [16] = experiment: as above
Procedure, shortened: as §2

HCC1599 [17] = experiment: as above
Procedure, shortened: as §2

HCC1937 [18] = experiment: as above
Procedure, shortened: as §2

HDQ-P1 = experiment: as above
Procedure, shortened: as §2

Hs578T = experiment: as above
Procedure, shortened: as §2

MCF-10A = experiment: as above
Procedure, shortened: as §2

MDA-MB-436 = experiment: as above
Procedure, shortened: as §2

MDA-MB-453 = experiment: as above
Procedure, shortened: as §2

MDA-MB-468 = experiment: as above
Procedure, shortened: as §2

MFM-223 = experiment: as above
Procedure, shortened: as §2

SK-BR-3 = experiment: as above
Procedure, shortened: as §2

Compound	normalised viability (BT-549 [1]; 10 nM) [%]	normalised viability (CAL-120 [2]; 10 nM) [%]	normalised viability (CAL-148 [3]; 1 nM) [%]	normalised viability (CAL-51 [4]; 1 nM) [%]	normalised viability (CAL-85-1 [5]; 1 nM) [%]	normalised viability (DU-4475 [6]; 1 nM) [%]	normalised viability (HCC1143 [7]; 10 nM) [%]	normalised viability (HCC1599 [8]; 10 nM) [%]	normalised viability (HCC1937 [9]; 10 nM) [%]	drug sensitivity score (BT-474)	drug sensitivity score (BT-549 [10])	drug sensitivity score (CAL-120 [11])	drug sensitivity score (CAL-148 [12])	drug sensitivity score (CAL-51 [13])	drug sensitivity score (CAL-85-1 [14])	drug sensitivity score (DU-4475 [15])	drug sensitivity score (HCC1143 [16])	drug sensitivity score (HCC1599 [17])	drug sensitivity score (HCC1937 [18])	drug sensitivity score (HDQ-P1)	drug sensitivity score (Hs578T)	drug sensitivity score (MCF-10A)	drug sensitivity score (MDA-MB-436)	drug sensitivity score (MDA-MB-453)	drug sensitivity score (MDA-MB-468)	drug sensitivity score (MFM-223)	drug sensitivity score (SK-BR-3)	normalised viability (BT-549 [1]; 100 nM) [%]	normalised viability (CAL-120 [2]; 100 nM) [%]	normalised viability (CAL-148 [3]; 10 nM) [%]	normalised viability (CAL-51 [4]; 10 nM) [%]	normalised viability (CAL-85-1 [5]; 10 nM) [%]	normalised viability (DU-4475 [6]; 10 nM) [%]	normalised viability (HCC1143 [7]; 100 nM) [%]	normalised viability (HCC1599 [8]; 100 nM) [%]	normalised viability (HCC1937 [9]; 100 nM) [%]
CCOc1cc2ncc(C#N)c(Nc3ccc(OCc4ccccn4)c(Cl)c3)c2cc1NC(=O)/C=C/CN(C)C [Neratinib]	101	84.9	93.5	97.1	96.5	97.7	89.1	99.7	106	0	0	1.19	2.61	1.09	7.08	0	0	0	0	6.58	0	11	0	8.47	4.31	0.624	24.8	–	–	–	–	–	–	–	–	–
COc1cccc2c1C(=O)c1c(O)c3c(c(O)c1C2=O)C[C@@](O)(C(C)=O)C[C@@H]3O[C@H]1C[C@H](N)[C@H](O)[C@H](C)O1 [Daunorubicin]	95.1	79	103	99.8	102	95.8	79.2	104	77.9	7.33	9.34	4.35	10	12	4.68	7.7	3.23	2.8	2.19	3.57	4.81	2.11	6.85	3.7	10.7	1.59	6.15	–	–	–	–	–	–	–	–	–
CC(C)C[C@H](NC(=O)[C@H](Cc1ccccc1)NC(=O)c1cnccn1)B(O)O [Bortezomib]	39.5	27.3	91.2	99.9	106	120	52.1	110	19.6	24.4	28.8	19.9	14.4	18.3	28.4	17.5	19.3	9.67	12.9	22.6	22.8	9.83	26	16.8	30.9	27.1	26.4	–	–	–	–	–	–	–	–	–
O=C(c1ccc(OCCN2CCCCC2)cc1)c1c(-c2ccc(O)cc2)sc2cc(O)ccc12 [Raloxifene]	–	–	–	–	–	–	–	–	–	0.666	0	0	0	0	1.62	0	0	1.37	0	0	0	0	0	0	2.72	1.56	0	87.2	102	100	99.6	101	105	109	104	110
CC(=O)O[C@H]1C(=O)[C@@]2(C)[C@H]([C@H](OC(=O)c3ccccc3)[C@]3(O)C[C@H](OC(=O)[C@H](O)[C@@H](NC(=O)c4ccccc4)c4ccccc4)C(C)=C1C3(C)C)[C@]1(OC(C)=O)CO[C@@H]1C[C@@H]2O [Paclitaxel]	31.9	36.9	103	91.8	103	97.6	54.6	104	36.4	17.2	24.3	13.2	18.3	18.9	22.8	10.4	20.9	14.2	10.5	11.5	23.7	19.8	21.1	9.73	23.5	16.5	33.6	–	–	–	–	–	–	–	–	–
COc1c(C)cnc(Cn2cnc3c(Cl)nc(N)nc32)c1C [BIIB021]	–	–	–	–	–	–	–	–	–	12.4	15.7	10.1	15.8	17.2	14.7	17.8	11.5	10.4	16.3	15.2	8.9	15.5	13.3	16.2	12.7	13.2	21.9	52.6	27.6	82.3	100	87.5	82.6	58.8	101	59.6
